Source: publication PMC6315541, “Nile Tilapia Derived Antimicrobial Peptide TP4 Exerts Antineoplastic Activity Through Microtubule Disruption” (Marine Drugs, 2018)
Entries after “also recorded” stand apart in the source; their conditions may differ.

Columns and labels:
[1] = tested on: microtubule network (α-Tubulin) in A549 cells; experiment: Immunocytochemistry of microtubule network and peptide uptake in A549 cells; format: cell-based, human; settings: A549 cells; TP4 6.71 μM, 3 h; FITC-labeled mutants; Figure 6B
Procedure: To examine whether TP4 may affect microtubule dynamics, A549 cells were treated with TP4, and cytoskeletal elements were analyzed by immunocytochemistry (ICC). […] We then asked whether TP4 treatment may influence tubulin protein levels by performing Western blots on lysates from A549 cells that had been treated with vehicle or TP4. […] We next conducted a microtubule regrowth assay to further address whether TP4 may disrupt microtubule polymerization. TP4 was applied to A549 cells that had been treated with or without Nocodazole (20 μM) treatment for 6 h, which completely depolymerizes the microtubule network. The repolymerization of microtubules was then initialized by the addition of fresh recovery medium, and regrowth was analyzed by ICC.
While the reduced toxicity may result from impaired binding to tubulin, it is also possible that such effects may be caused by conformational changes in the TP4 mutants, see Supplementary Figure S1C,D, which prevent intracellular penetration. To test this possibility, ICC was conducted to evaluate the cellular localization and the effects on microtubules. […] For both Gly and Ala substitution mutants, FITC-labeled TP4 mutants were able to be taken up intracellularly, see Figure 6B, panels MT-1 to MT-6. However, the microtubule network was only affected in MT-1- and MT-4-treated cells and not the other mutant-treated groups, as shown in Figure 6B.
(§1) Figure 6 Loss of cancer-killing ability in TP4 mutants. (A) Cell viability in A549 cells was determined by the adenosine triphosphate (ATP) assay following treatment with varying doses of TP4 and TP4 mutants for 24 h. Multiple wells were analyzed for each assay. Results represent the mean ± SD. Statistical comparisons between groups were performed using two-way ANOVA: a, not significant; b, p < 0.05; d, p < 0.001. Statistical analyses are shown in Supplementary Table S1. (B) Cells were stained for TP4 (WT panel), FITC (MT-1 to MT-6 panels), α-Tubulin, and F-actin. Hoechst33342 was used for nuclei staining. Boxed regions are magnified in the furthest right panels. […] Bar: 20 μm.
Cells were stained with TP4 (1:1000), FITC (1:500, ThermoFisher Scientific, clone 1F8-1E4), α-Tubulin (1:500), and appropriate Alexa Flour conjugated secondary antibody (1:500; ThermoFisher Scientific, Eugene, OR, USA). Hochest33342 was used for nuclear staining, and Alexa Fluor 647-conjugated phalloidin (1:200, Thermo Fisher Scientific, Eugene, OR, USA) was used to stain F-actin. For the confocal microscopic analysis, samples were mounted with fluorescent mounting medium (ProLong Gold Antifade Reagent, ThermoFisher Scientific, Eugene, OR, USA) and images were obtained with a FV3000 laser-scanning confocal microscope (Olympus), using a 60 × objective lens (Plapon 60 × OSC2, N.A. 1.4, oil) with the 4′,6-diamidino-2-phenylindole (DAPI) ([…]), green fluorescent protein (GFP) (EX 470, EM 525 for enhanced GFP (EGFP)), and Cy5 ([…]) emission filters. FV31S software (Olympus, Tokyo, Japan) was used for image acquisition.

A549 cells = experiment: Cell viability (CellTiter-Glo ATP assay) in A549 cells; format: cell-based, human; settings: 24 h; for relative ATP levels (cell viability): CellTiter-Glo ATP assay, luminescence, mean ± SD of three independent assays, n ≥ 5 wells per dose; for cytotoxicity to A549 cells (in words): doses 3.35-20.12 µM, ATP assay, Figure 6A
Procedure: as §1
The A549 cell line (Bioresource Collection and Research Center (BCRC) 60074) was purchased from the BCRC and cultured according to BCRC recommendations. For the cell viability and transfection assay, 4–5 × 10^3 cells were seeded into the wells of a 96-well plate and cultured overnight. Cells were then treated according to the indicated doses and times. Cell viability was quantified using the CellTiter-Glo® Luminescent Cell Viability Assay kit (ATP assay) (Madison, WI, USA) as previously described. The luminescent signal was measured using a photometer (SpectraMax® i3, Molecular Devices, Wals, Austria).
For the multi-well based assay, cells were plated at least in quadruplicate. Data were collected from independently repeated experiments (N ≥ 3) and were analyzed by Prism5 software (GraphPad Inc., La Jolla, CA, USA). Statistical significance was determined by a two-tailed Student’s t-test or one-way/two-way analysis of variance (ANOVA) with a Bonferroni post hoc test. Differences were considered statistically significant at p < 0.05. […]
Supplementary Table S1. Cellular toxicit y of TP 4 to A549 cells was evaluated b y cell viability. Results of statis tical tests on data in Figu re 6A are shown. Multiple wells were anal yzed for each ex periment (n ≥ 5 wells per do se). Results represent the mean ± SD from three independent assays. Statistical comparisons between mock versus TP4 treatment groups were performed using two -way ANOVA anal ysis with Bonferroni post-hoc test: a, not signi ficant; b, P < 0.05; c, P < 0.01; d, P < 0.001. […]
(A-G) Th e helical projection plot and s tructural model o f TP4 (A) and TP4 variants (MT-1 to MT-6, B-G ). The helical proj ecti on was produced b y an online helical wheel projection program (http://rzlab.ucr.edu/scripts/wheel/wheel.cgi). Amino acid residues are numbered and each amino acid is connected with lines to indicate its relative position along the helix. The hydrophobic residues are shown as diamonds ; h ydrophilic residues are circles. Residues with negative charge are shown as trian gles and positively charged residues are pentagons. Hydrophobicity is color coded. The

| Substance | effect on microtubule network (α-Tubulin ICC) [1] | relative ATP levels (cell viability) (A549 cells; 3.35 µM) | relative ATP levels (cell viability) (A549 cells; 5.03 µM) | relative ATP levels (cell viability) (A549 cells; 6.71 µM) | relative ATP levels (cell viability) (A549 cells; 20.12 µM) | cytotoxicity to A549 cells (in words) (A549 cells) |
| --- | --- | --- | --- | --- | --- | --- |
| MT-1: TP4 mutant, Phe1 to Gly (GIHHIIGGLFSAGKAIHRLIRRRRR) | affected; also recorded: microtubule abnormalities were observed | 0.931±0.160 | 1.044±0.280 | 0.852 ± 0.145 | 0.003±0.001 | decreased cytotoxicity |
| MT-4: TP4 mutant, Phe1 to Ala (AIHHIIGGLFSAGKAIHRLIRRRRR) | affected; also recorded: microtubule abnormalities were observed | 0.454±0.169 | 0.241±0.094 | 0.070±0.045 | 0.001±0.007 | strongly cytotoxic |
